Results on 31 compounds are retold here after ChEMBL document CHEMBL3045096, “Pharmacophore modeling and 3D-QSAR (CoMSIA) studies for structural requirements of some triazine derivatives as G-quadruplex binders for telomerase inhibition” (Med Chem Res, 2013).

The target of the test is Telomerase reverse transcriptase (Homo sapiens, UniProt O14746). The test is described as follows: Inhibition of telomerase (unknown origin).
Chain of Telomerase reverse transcriptase (O14746 whole entry): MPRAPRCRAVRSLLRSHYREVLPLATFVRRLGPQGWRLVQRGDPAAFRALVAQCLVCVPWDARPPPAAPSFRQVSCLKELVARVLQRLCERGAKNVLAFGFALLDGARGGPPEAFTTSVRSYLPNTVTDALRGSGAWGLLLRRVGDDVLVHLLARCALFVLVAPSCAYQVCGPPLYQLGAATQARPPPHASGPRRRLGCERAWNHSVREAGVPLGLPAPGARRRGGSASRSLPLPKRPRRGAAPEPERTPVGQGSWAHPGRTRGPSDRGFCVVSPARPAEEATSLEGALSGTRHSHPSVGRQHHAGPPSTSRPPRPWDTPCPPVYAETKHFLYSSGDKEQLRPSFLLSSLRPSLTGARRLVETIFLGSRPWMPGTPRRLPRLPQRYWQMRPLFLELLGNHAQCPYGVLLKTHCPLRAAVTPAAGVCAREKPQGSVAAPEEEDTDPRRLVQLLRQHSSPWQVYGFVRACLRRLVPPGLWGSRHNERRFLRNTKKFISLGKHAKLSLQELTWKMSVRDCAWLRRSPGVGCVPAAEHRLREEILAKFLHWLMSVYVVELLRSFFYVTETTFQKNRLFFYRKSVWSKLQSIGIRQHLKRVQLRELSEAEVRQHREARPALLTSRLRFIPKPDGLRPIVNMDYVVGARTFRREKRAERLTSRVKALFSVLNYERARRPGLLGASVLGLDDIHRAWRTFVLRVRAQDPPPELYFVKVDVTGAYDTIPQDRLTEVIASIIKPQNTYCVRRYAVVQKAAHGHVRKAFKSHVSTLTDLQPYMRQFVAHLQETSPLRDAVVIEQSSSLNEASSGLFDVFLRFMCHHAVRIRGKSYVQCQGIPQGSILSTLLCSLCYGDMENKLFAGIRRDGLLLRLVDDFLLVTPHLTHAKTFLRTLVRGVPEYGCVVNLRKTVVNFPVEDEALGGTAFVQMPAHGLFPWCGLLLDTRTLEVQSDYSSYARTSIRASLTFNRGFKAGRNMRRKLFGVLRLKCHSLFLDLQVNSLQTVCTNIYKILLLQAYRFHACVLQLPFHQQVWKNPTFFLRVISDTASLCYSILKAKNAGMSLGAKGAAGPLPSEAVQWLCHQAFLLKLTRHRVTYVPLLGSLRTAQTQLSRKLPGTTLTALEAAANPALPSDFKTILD

Take `CNc1nc(Nc2ccc3nc(C)cc(N)c3c2)nc(Nc2ccc3nc(C)cc(N)c3c2)n1`: the IC50 (as a rule, the concentration that inhibits the measured activity by half) was determined as 510 nM. With `CSc1nc(Nc2ccc3nc(C)cc(N)c3c2)nc(N(C)c2ccc3ncccc3c2)n1` the figure was 3500 nM; with `COc1ccc2nccc(Nc3nc(Nc4ccc5nc(C)cc(C)c5c4)nc(SC)n3)c2c1`, 3300 nM. With `CSc1nc(Nc2ccc3ncccc3c2)nc(Nc2ccc3nc(C)cc(N)c3c2)n1` the figure was 2600 nM; with `COc1cc(C)nc2ccc(Nc3nc(Nc4ccc5nc(C)cc(OC)c5c4)nc(SC)n3)cc12`, 3900 nM; with `CCN(CC)c1nc(Nc2ccc3ncccc3c2)nc(Nc2ccc3nc(C)cc(N)c3c2)n1`, 2500 nM.

In turn, `Cc1cc(N)c2cc(Nc3nc(Nc4ccc5c(c4)c(N)cc(C)[n+]5C)nc(N(C)C)n3)ccc2[n+]1C` came in with an IC50 of 220 nM.

`Cc1cc(N)c2cc(NC(=N)NC(=N)Nc3ccc4nc(C)cc(N)c4c3)ccc2n1` came in with an IC50 of 2000 nM. Compared with the last compound, the IC50 is about 9.1-fold higher. With `Cc1cc(N)c2cc(Nc3ccnc(Nc4ccc5nc(C)cc(N)c5c4)n3)ccc2n1` the figure was 490 nM; with `COc1cc(C)nc2ccc(Nc3nc(Nc4ccc5nc(C)cc(N)c5c4)nc(SC)n3)cc12`, 2300 nM. Compound `CSc1nc(Nc2cccc(C(=N)N)c2)nc(Nc2ccc3nc(C)cc(N)c3c2)n1` registered an IC50 of 3300 nM. `CSc1nc(Nc2ccc3nc(C)cc(N)c3c2)nc(Nc2ccc3nc(C)cc(N(C)C)c3c2)n1`: the IC50 was 340 nM.

`CSc1nc(Nc2ccc3nc(C)cc(C)c3c2)nc(Nc2ccnc3ccccc23)n1`: the IC50 turned out to be 3400 nM. With `Cc1cc(N(C)C)c2cc(Nc3nc(Cl)nc(Nc4ccc5nc(C)cc(N(C)C)c5c4)n3)ccc2n1` the figure was 3000 nM. With `CSc1nc(Nc2ccc3nc(C)ccc3c2)nc(Nc2ccc3nc(C)cc(N)c3c2)n1` the figure was 1000 nM. With `CSc1nc(Nc2ccc3nc(C)cc(N(C)C)c3c2)nc(Nc2ccc3nc(C)cc(N(C)C)c3c2)n1` the figure was 41 nM.

The compound `N=C(N)c1ccc(Nc2nc(N)nc(Nc3ccc(C(=N)N)cc3)n2)cc1` showed an IC50 of 740 nM. With `CCc1cc(Nc2nc(Nc3ccc4nc(C)cc(N)c4c3)nc(SC)n2)ccn1` the figure was 2200 nM. With `CSc1nc(Nc2ccc3c(c2)c(=N)cc(C)n3C)nc(Nc2ccc3c(c2)c(=N)cc(C)n3C)n1` the figure was 950 nM. With `CSc1nc(Nc2ccc3nc(C)cc(N)c3c2)nc(Nc2ccc3nc(C)cc(N)c3c2)n1` the figure was 49 nM; with `CCn1c2ccccc2c2cc(Nc3nc(Nc4ccc5nc(C)cc(N)c5c4)nc(SC)n3)ccc21`, 2800 nM.

`C[n+]1c2ccccc2c(N)c2cc(Nc3nc(N)nc(Nc4ccc5c(c4)c(N)c4ccccc4[n+]5C)n3)ccc21` had an IC50 of 890 nM. `CCN(CC)c1nc(Nc2ccncc2)nc(Nc2ccc3nc(C)cc(C)c3c2)n1` showed an IC50 of 3400 nM. With `CSc1nc(Nc2ccc3nc[nH]c3c2)nc(Nc2ccc3nc(C)cc(C)c3c2)n1` the figure was 3300 nM; with `CSc1nc(Nc2ccc(C#N)cc2)nc(Nc2ccc3nc(C)cc(N)c3c2)n1`, 3400 nM. With `Cc1cc(N)c2cc(Nc3nc(N)nc(Nc4ccc5c(c4)c(N)cc(C)[n+]5C)n3)ccc2[n+]1C` the figure was 250 nM; with `Cc1cc(N)c2cc(Nc3nc(N)nc(Nc4ccc5nc(C)cc(N)c5c4)n3)ccc2n1`, 51 nM; with `CNc1nc(Nc2ccc3nc(C)cc(NC)c3c2)nc(Nc2ccc3nc(C)cc(NC)c3c2)n1`, 300 nM.

In turn, `CSc1nc(Nc2ccc3nc(C)cc(C)c3c2)nc(Nc2ccc3nc(C)cc(N)c3c2)n1` returned an IC50 of 3400 nM. In turn, `CC[n+]1c(C)cc(N)c2cc(Nc3nc(N)nc(Nc4ccc5c(c4)c(N)cc(C)[n+]5CC)n3)ccc21` came in with an IC50 of 56 nM. With `C[n+]1cccc2cc(Nc3nc(N)nc(Nc4ccc5c(ccc[n+]5C)c4)n3)ccc21` the figure was 130 nM.
